Source: patent US6569880B2, “Bis(benzimidazole) derivatives serving as potassium blocking agents” (Neurosearch A/S, priority 1998, dated 2003)
Where a name gives a salt, the structure may show the parent alone.

Row | SMILES | melting point
1 | Nc1nc2ccccc2n1CCn1c(N)nc2ccccc21 [Compound 1e, 1,2-Bis(2-aminobenzimidazol-1-yl)ethane] | 257 to 258 °C
2 | Nc1nc2ccccc2n1CCCCCCn1c(N)nc2ccccc21 (as salt: HCl) [Compound 1b, 1,6-Bis(2-aminobenzimidazol-1-yl)hexane] | 145 to 147 °C
3 | Nc1nc2ccccc2n1CCCn1c(N)nc2ccccc21 [Compound 1d, 1,3-Bis(2-aminobenzimidazol-1-yl)propane] | 220 °C (dec.)
